Where two headings read alike, the source gives them in different places.
Experiments:
[1] = molecular target: recombinant human Mcl-1 (residues 171-327) / Bim interaction (Homo sapiens (Human), UniProt Q07820); assay: biochemical; format: binding; details: read-out: Mcl-1 HTRF IC50
[2] = system: human multiple myeloma cell line, OPM-2; assay: Cell viability assay (OPM-2 10 FBS), CellTiter-Glo; format: cell-based
How it was run: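 Steps: plate cells at 3000/well in 10% FBS growth medium, add serially diluted compound, incubate 16 h at 37 °C with 5% CO2, add detection reagent and read luminescence after 25 min. A 4-parameter logistic model gives IC50.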

[3] = TR-FRET, Mcl-1(171-327) / biotin-Bim (51-76)
[4] = Homo sapiens, OPM-2, 16 h, read-out: OPM-2 10% FBS IC50 IP, OPM-2 cells, 10% FBS, 16 h, CellTiter-Glo
[5] = 0.1 nM Mcl-1(171-327), 0.05 nM biotin-Bim (51-76)
[6] = Homo sapiens, OPM-2, 16 h, read-out: OPM-2 10% FBS IC50 IP, OPM-2 cells, 10% FBS, 16 h incubation
[7] = read-out: OPM-2 10% FBS IC50 IP, OPM-2 cells, 10% FBS, 16 h incubation

Sequence of recombinant human Mcl-1 (residues 171-327) / Bim interaction (Q07820 171-327): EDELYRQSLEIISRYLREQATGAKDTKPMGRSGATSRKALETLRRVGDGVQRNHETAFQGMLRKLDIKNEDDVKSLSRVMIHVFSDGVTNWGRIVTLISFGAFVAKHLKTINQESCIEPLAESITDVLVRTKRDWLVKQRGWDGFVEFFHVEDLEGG

| Compound | IC50 [1, 3] [nM] | IC50 [2, 4] [nM] | IC50 [1, 5] [nM] | further results |
| --- | --- | --- | --- | --- |
| COCCN(C)C(=O)C[C@]1(OC)/C=C/C[C@H](C)[C@@H](C)S(=O)(=O)NC(=O)c2ccc3c(c2)N(C[C@@H]2CC[C@H]21)C[C@@]1(CCCc2cc(Cl)ccc21)CO3 [Example 100005, 2-((1 S,3′R,6′R,7′S,8′E,11′S, 12′R)-6-chloro-7′-methoxy-11′,12′-dimethyl-13′,13′-dioxido-15′-oxo-3,4-dihydro-2H-spiro[naphthalene-1,22′-[20]oxa[13]thia[1,14]diazatetracyclo[14.7.2.0-3,6˜.0˜19,24˜]pentacosa[8,16,18,24]tetraen]-7′-yl)-N-(2-methoxyethyl)-N-methylacetamide] | 0.091 | 62 | – | – |
| CO[C@@]1(CN2CC(N3CCS(=O)(=O)CC3)C2)/C=C/C[C@H](C)[C@@H](C)S(=O)(=O)NC(=O)c2ccc3c(c2)N(C[C@@H]2CC[C@H]21)C[C@@]1(CCCc2cc(Cl)ccc21)CO3 [Example 279, (1S,3′R,6′R,7′S,8′E,11′S,12′R)-6-chloro-7′-((3-(1,1-dioxido-4-thiomorpholinyl)-1-azetidinyl)methyl)-7′-methoxy-11′,12′-dimethyl-3,4-dihydro-2H,15′H-spiro[naphthalene-1,22′-[20]oxa[13]thia[1,14]diazatetracyclo [14.7.2.0~3,6~.0~19,24~]pentacosa[8,16,18,24]tetraen]-15′-one 13′,13′-dioxide] | – | – | 0.084 | IC50 [2, 6]: 453 nM |
| C[C@@H]1[C@@H](C)C/C=C/[C@@](O)(c2ncccc2F)[C@@H]2CC[C@H]2CN2C[C@@]3(CCCc4cc(Cl)ccc43)COc3ccc(cc32)C(=O)NS1(=O)=O (single isomer, unassigned) [Example 100390] | 0.186 | 649 | – | – |
| C[C@@H]1[C@@H](C)CCC[C@@](O)(CN=[N+]=[N-])[C@@H]2CC[C@H]2CN2C[C@@]3(CCCc4cc(Cl)ccc43)COc3ccc(cc32)C(=O)NS1(=O)=O (single isomer, unassigned) [Example 506] | – | – | 3.8 | IC50 [2, 7]: 7430 nM |
| CCO[C@@]1(CN2CCC(N(C)C)CC2)/C=C/C[C@H](C)[C@@H](C)S(=O)(=O)NC(=O)c2ccc3c(c2)N(C[C@@H]2CC[C@H]21)C[C@@]1(CCCc2cc(Cl)ccc21)CO3 [Example 110, (1S,3′R,6′R,7′S,8′E,11′S,12′R)-6-chloro-7′-((4-(dimethylamino)-1-piperidinyl)methyl)-7′-ethoxy-11′,12′-dimethyl-3,4-dihydro-2H,15′H-spiro[naphthalene-1,22′-[20]oxa[13]thia[1,14]diazatetracyclo [14.7.2.0~3,6~.0~19,24~]pentacosa[8,16,18,24]tetraen]-15′-one 13′,13′-dioxide] | – | – | 0.505 | IC50 [2, 6]: 1720 nM |
| CCOP(=O)(OCC)C(F)(F)[C@]1(O)/C=C/C[C@H](C)[C@@H](C)S(=O)(=O)NC(=O)c2ccc3c(c2)N(C[C@@H]2CC[C@H]21)C[C@@]1(CCCc2cc(Cl)ccc21)CO3 [Example 100068, diethyl (((1S,3′R,6′R,7′S,8′E,11′S,12′R)-6-chloro-7′-hydroxy-11′,12′-dimethyl-13′,13′-dioxido-15′-oxo-3,4-dihydro-2H-spiro[naphthalene-1,22′-[20]oxa[13]thia[1,14]diazatetracyclo [14.7.2.0~3,6~.0~19,24~]pentacosa[8,16,18,24]tetraen]-7′-yl)(difluoro)methyl)phosphonate] | 4.41 | – | – | IC50 ([2]; read-out: OPM-2 10% FBS IC50 IP, OPM-2 cells, 10% FBS, 16 h, CellTiter-Glo): 765 nM |
| CO[C@@]1(CN2CCN(C(C)=O)CC2)/C=C/C[C@H](C)[C@@H](C)S(=O)(=O)NC(=O)c2ccc3c(c2)N(C[C@@H]2CC[C@H]21)C[C@@]1(CCCc2cc(Cl)ccc21)CO3 [Example 249, (1S,3′R,6′R,7′S,8′E,11′S,12′R)-7′-((4-acetyl-1-piperazinyl)methyl)-6-chloro-7′-methoxy-11′,12′-dimethyl-3,4-dihydro-2H,15′H-spiro[naphthalene-1,22′-[20]oxa[13]thia[1,14]diazatetracyclo [14.7.2.0~3,6~.0~19,24~]pentacosa[8,16,18,24]tetraen]-15′-one 13′,13′-dioxide] | – | – | 0.063 | IC50 [2, 6]: 114 nM |
| CO[C@@]1([C@@H](C)O)/C=C/C[C@H](C)[C@@H](C)S(=O)(=O)NC(=O)c2ccc3c(c2)N(C[C@@H]2CC[C@H]21)C[C@@]1(CCCc2cc(Cl)ccc21)CO3 (stereo in doubt) [Example 100487] | 0.436 | 340 | – | – |
| CO[C@@]1(CC2=NC(C)(C)C(=O)O2)/C=C/C[C@H](C)[C@@H](C)S(=O)(=O)NC(=O)c2ccc3c(c2)N(C[C@@H]2CC[C@H]21)C[C@@]1(CCCc2cc(Cl)ccc21)CO3 [Example 100547, (1S,3′R,6′R,7′S,8′E,11′S,12′R)-6-chloro-7′-((4,4-dimethyl-5-oxo-4,5-dihydro-1,3-oxazol-2-yl)methyl)-7′-methoxy-11′,12′-dimethyl-3,4-dihydro-2H,15′H-spiro[naphthalene-1,22′-[20]oxa[13]thia[1,14]diazatetracyclo [14.7.2.0~3,6~.0~19,24~]pentacosa[8,16,18,24]tetraen]-15′-one 13′,13′-dioxide] | 0.031 | 1860 | – | – |
| CC[C@@H]1CC/C=C/[C@@](OC)(C2SCCCS2)[C@@H]2CC[C@H]2CN2C[C@@]3(CCCc4cc(Cl)ccc43)COc3ccc(cc32)C(=O)NS1(=O)=O (single isomer, unassigned) [Example 100579] | 0.214 | 757 | – | – |
| CO[C@]1(CN2CCN3CCC(F)(F)C[C@H]3C2)/C=C/C[C@H](C)[C@@H](C)S(=O)(=O)NC(=O)c2ccc3c(c2)N(C[C@@H]2CC[C@H]21)C[C@@]1(CCCc2cc(Cl)ccc21)CO3 (single isomer, unassigned) [Example 299] | – | – | 0.367 | IC50 [2, 7]: 456 nM |
| CO[C@@]1(CC(=O)N(C)CCN2CCOCC2)/C=C/C[C@H](C)[C@@H](C)S(=O)(=O)NC(=O)c2ccc3c(c2)N(C[C@@H]2CC[C@H]21)C[C@@]1(CCCc2cc(Cl)ccc21)CO3 [Example 100377, 2-((1S,3′R,6′R,7′S,8′E,11′S,12′R)-6-chloro-7′-methoxy-11′,12′-dimethyl-13′,13′-dioxido-15′-oxo-3,4-dihydro-2H-spiro[naphthalene-1,22′-[20]oxa[13]thia[1,14]diazatetracyclo [14.7.2.0~3,6~.0~19,24~]pentacosa[8,16,18,24]tetraen]-7′-yl)-N-methyl-N-(2-(4-morpholinyl)ethyl)acetamide] | 0.107 | 182 | – | – |
| CO[C@]1(CN(C)C)/C=C/C[C@H](C)[C@@H](C)S(=O)(=O)NC(=O)c2ccc3c(c2)N(C[C@@H]2CC[C@H]21)C[C@@]1(CCCc2cc(Cl)ccc21)CO3 [Example 69, (1S,3′R,6′R,7′R,8′E,11′S,12′R)-6-chloro-7′-((dimethylamino)methyl)-7′-methoxy-11′,12′-dimethyl-3,4-dihydro-2H,15′H-spiro[naphthalene-1,22′-[20]oxa[13]thia[1,14]diazatetracyclo [14.7.2.0~3,6~.0~19,24~]pentacosa[8,16,18,24]tetraen]-15′-one 13′,13′-dioxide] | – | – | 3.83 | IC50 [2, 6]: 1480 nM |
| C[C@@H]1[C@@H](C)CCC[C@@]2(OCCO[C@H]2C=O)[C@@H]2CC[C@H]2CN2C[C@@]3(CCCc4cc(Cl)ccc43)COc3ccc(cc32)C(=O)NS1(=O)=O (single isomer, unassigned) [Example 100495] | 0.462 | 539 | – | – |
